Measurements reported in US9669035B2, “Combinations comprising PDE 2 inhibitors such as 1-aryl-4-methyl-[1,2,4]triazolo-[4,3-A]]quinoxaline compounds and PDE 10 inhibitors for use in the treatment of neurological of metabolic disorders” (Janssen Pharmaceutica NV, priority 2012, dated 2017).
Like-named read-outs stand apart in the source and are kept apart here.

How the values were obtained:
[1] = target: Rat recombinant PDE10A (rPDE10A2) (Rattus norvegicus (Rat), UniProt Q9QYJ6); test: In vitro assay PDE10A (SPA, 3H-cAMP); assay type: biochemical
Sequence of Rat recombinant PDE10A (rPDE10A2) (Q9QYJ6 whole entry): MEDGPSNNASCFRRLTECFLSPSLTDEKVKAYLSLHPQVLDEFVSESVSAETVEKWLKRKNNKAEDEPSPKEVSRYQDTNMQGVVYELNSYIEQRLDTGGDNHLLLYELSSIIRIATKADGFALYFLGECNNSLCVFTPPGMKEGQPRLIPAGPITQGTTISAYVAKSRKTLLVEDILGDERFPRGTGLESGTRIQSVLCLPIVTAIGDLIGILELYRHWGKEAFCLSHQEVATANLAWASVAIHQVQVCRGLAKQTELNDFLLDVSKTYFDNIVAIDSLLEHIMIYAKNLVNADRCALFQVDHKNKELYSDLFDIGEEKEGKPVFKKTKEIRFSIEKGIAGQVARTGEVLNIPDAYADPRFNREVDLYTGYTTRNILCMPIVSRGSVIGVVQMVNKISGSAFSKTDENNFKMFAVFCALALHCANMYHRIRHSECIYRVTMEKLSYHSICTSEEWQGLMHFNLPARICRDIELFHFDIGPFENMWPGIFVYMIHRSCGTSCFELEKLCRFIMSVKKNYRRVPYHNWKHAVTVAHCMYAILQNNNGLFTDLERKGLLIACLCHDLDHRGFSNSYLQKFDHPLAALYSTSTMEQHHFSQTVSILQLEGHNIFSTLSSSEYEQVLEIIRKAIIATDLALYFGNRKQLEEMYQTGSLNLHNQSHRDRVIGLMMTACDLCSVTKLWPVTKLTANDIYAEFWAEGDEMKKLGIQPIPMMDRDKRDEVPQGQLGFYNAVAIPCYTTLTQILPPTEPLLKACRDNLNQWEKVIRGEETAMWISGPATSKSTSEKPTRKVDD

[2] = tested on: Apomorphine-induced agitation in rats; test: Inhibition of apomorphine-induced agitation in rats (APO)
[3] = tested on: d-Amphetamine-induced hyperlocomotion in rats; test: d-Amphetamine-induced hyperlocomotion in rats: potentiation of the effect of MP-10; assay type: in vivo, rat; conditions: d-amphetamine (1.25 mg/kg, s.c.) + MP-10 (2.5 mg/kg, s.c.)
[4] = tested on: Apomorphine-induced agitation in rats; test: Inhibition of apomorphine-induced agitation in rats in combination with MP-10; assay type: in vivo, rat; conditions: SC, MP-10 (0.63 mg/kg) + apomorphine (1.0 mg/kg) i.v.
Description: Inhibition of Apomorphine-induced Agitation in Rats in combination with MP-10 but the animals were simultaneously challenged with MP-10 (0.63 mg/kg) in addition to apomorphine (1.0 mg/kg) via one injection (2 ml/kg, i.v.), at a fixed time interval (standard 1 h) after s.c. or p.o. dosing of test compound or solvent. Twelve times, every 5 min, the intensity of agitation was scored 0 to 3.

[5] = SC, lowest dose at which >=67% tested animals respond

Structure (SMILES): COc1ccc(Cl)c(-c2nnc3c(C)nc4ccc(CN5CCOCC5)cc4n23)c1 [Compound B-10]
- PIC50 PDE10 ([1]; -log IC50 expressed in mol/L): 6.98
- Dose at Max Effect ([2]; PO): 10
- Max effect (lowest median cumulative agitation score) ([2]; PO, at the dose of column Dose at Max Effect): 21
- LAD (lowest active dose) ([2]; rat, in vivo): >10

Structure (SMILES): Cc1nc2ccc(CN3CCOCC3)cc2n2c(-c3cc(OC(C)C)ccc3Cl)nnc12 [Compound B-6]
- Distance Total <2500 cm Effect ([3]; PO, Time -60, dose 10): 5033 cm
- Distance Total <2500 cm Effect ([3]; SC, Time -60, dose 0.63): 3096 cm
- Distance Total <2500 cm Effect ([3]; SC, Time -60, dose 2.5): 1206 cm
- Distance Total <2500 cm Effect ([3]; SC, Time -60, dose 10): 743.7 cm
- PIC50 PDE10 ([1]; -log IC50 expressed in mol/L): 5.73
- Inh. of agitation < 10 Effect (cumulative agitation score) ([4]; Time 60, dose 2.5): 13
- Inh. of agitation < 10 Effect (cumulative agitation score) ([4]; Time 60, dose 10): 1

Structure (SMILES): Cc1nc2ccc(CNC(C)C)cc2n2c(-c3cncc(OCC4CC4)c3)nnc12 [Compound B-31]
- PIC50 PDE10 [1]: 5.84

Structure (SMILES): CCNCc1ccc2nc(C)c3nnc(-c4cc(OCC)ccc4Cl)n3c2c1 [Compound B-22a]
- PIC50 PDE10 [1]: 6.04

Structure (SMILES): Cc1nc2ccc(CN3CCOCC3)cc2n2c(-c3c(F)cccc3Cl)nnc12 [Compound B-5, 1-(2-Chloro-6-fluorophenyl)-4-methyl-8-(morpholin-4-ylmethyl) [1,2,4]triazolo[4,3-a]quinoxaline]
- Dose at max effect ([2]; SC): 40
- Max effect (lowest median cumulative agitation score) ([2]; SC, at the dose at max effect): 1
- LAD (lowest active dose) [2, 5]: 0.63

Structure (SMILES): CCCOc1ccc(Cl)c(-c2nnc3c(C)nc4ccc(CNCC)cc4n23)c1 [Compound B-14]
- PIC50 PDE10 [1]: 5.75

Structure (SMILES): CCNCc1ccc2nc(C)c3nnc(-c4ccccc4Cl)n3c2c1 [Compound B-4, N-{[1-(2-Chlorophenyl)-4-methyl[1,2,4]triazolo[4,3-a]quinoxalin-8-yl]methyl}-ethanamine]
- PIC50 PDE10 ([1]; -log IC50 expressed in mol/L): 6.8
- Dose at max effect ([2]; SC): 10
- Max effect (lowest median cumulative agitation score) ([2]; SC, at the dose at max effect): 21
- LAD (lowest active dose) [2, 5]: >10

Structure (SMILES): Cc1nc2ccc(CN(C)C)cc2n2c(-c3cncc(OCC4CC4)c3)nnc12 [Compound B-30]
- PIC50 PDE10 [1]: <5

Structure (SMILES): Cc1nc2ccc(CN(C)C)cc2n2c(-c3ccccc3Cl)nnc12 [Compound B-13]
- PIC50 PDE10 ([1]; -log IC50 expressed in mol/L): 6.97
- Dose at max effect ([2]; SC): 10
- Max effect (lowest median cumulative agitation score) ([2]; SC, at the dose at max effect): 20.5
- LAD (lowest active dose) ([2]; rat, in vivo): >10

Structure (SMILES): CCCOc1ccc(Cl)c(-c2nnc3c(C)nc4ccc(CN5CCOCC5)cc4n23)c1 [Compound B-8]
- PIC50 PDE10 ([1]; -log IC50 expressed in mol/L): 6.49
- Dose at max effect ([2]; SC): 10
- Max effect (lowest median cumulative agitation score) ([2]; SC, at the dose at max effect): 23
- LAD (lowest active dose) [2, 5]: >10

Structure (SMILES): CCCCOc1cncc(-c2nnc3c(C)nc4ccc(CNCC)cc4n23)c1 [Compound B-21]
- PIC50 PDE10 [1]: <5

Structure (SMILES): Cc1nc2ccc(CN(C)C)cc2n2c(-c3cc(OC(C)C)ccc3Cl)nnc12 [Compound B-17]
- Distance Total <2500 cm Effect ([3]; SC, Time -60, dose 2.5): 4133 cm
- Distance Total <2500 cm Effect ([3]; SC, Time -60, dose 10): 1721 cm
- PIC50 PDE10 [1]: 5.8
- Inh. of agitation < 10 Effect (cumulative agitation score) ([4]; Time 60, dose 10): 12

Structure (SMILES): CCNCc1ccc2nc(C)c3nnc(-c4cncc(OCC5CC5)c4)n3c2c1 [Compound B-32]
- PIC50 PDE10 [1]: <5

Structure (SMILES): CCOc1ccc(Cl)c(-c2nnc3c(C)nc4ccc(CN(C)C)cc4n23)c1 [Compound B-18]
- Distance Total <2500 cm Effect ([3]; SC, Time -60, dose 10): 3369 cm
- PIC50 PDE10 [1]: 6.5
- Inh. of agitation < 10 Effect (cumulative agitation score) ([4]; Time 60, dose 10): 17
- Dose at max effect ([2]; SC): 10
- Max effect (lowest median cumulative agitation score) ([2]; SC, at the dose at max effect): 22
- LAD (lowest active dose) ([2]; rat, in vivo): >10

Structure (SMILES): CCCOc1cncc(-c2nnc3c(C)nc4ccc(CN5CCOCC5)cc4n23)c1 [Compound B-16]
- PIC50 PDE10 ([1]; -log IC50 expressed in mol/L): 5.21

Structure (SMILES): CCCCOc1ccc(Cl)c(-c2nnc3c(C)nc4ccc(CN5CCOCC5)cc4n23)c1.Cl [Compound B-2, 1-(5-Butoxy-2-chlorophenyl)-4-methyl-8-(morpholin-4-ylmethyl) [1,2,4]triazolo-[4,3-a]quinoxaline hydrochloride]
- PIC50 PDE10 ([1]; -log IC50 expressed in mol/L): 5.79

Structure (SMILES): CCOc1ccc(Cl)c(-c2nnc3c(C)nc4ccc(CN5CCOCC5)cc4n23)c1 [Compound B-7]
- PIC50 PDE10 ([1]; -log IC50 expressed in mol/L): 6.58
- Dose at max effect ([2]; SC): 10
- Max effect (lowest median cumulative agitation score) ([2]; SC, at the dose at max effect): 24
- LAD (lowest active dose) [2, 5]: >10

Structure (SMILES): CCNCc1ccc2nc(C)c3nnc(-c4cc(OC(C)C)ccc4Cl)n3c2c1 [Compound B-19]
- PIC50 PDE10 [1]: 5.07

Structure (SMILES): Cc1nc2ccc(CN3CCOCC3)cc2n2c(-c3cc(F)ccc3Cl)nnc12 [Compound B-9]
- PIC50 PDE10 ([1]; -log IC50 expressed in mol/L): 7.07
- Dose at max effect ([2]; SC): 10
- Max effect (lowest median cumulative agitation score) ([2]; SC, at the dose at max effect): 9
- LAD (lowest active dose) ([2]; rat, in vivo): 2.5

Structure (SMILES): CCCCOc1cc(-c2nnc3c(C)nc4ccc(CN5CCOCC5)cc4n23)cnc1Cl [Compound B-29]
- PIC50 PDE10 ([1]; -log IC50 expressed in mol/L): <5

Structure (SMILES): Cc1nc2ccc(CN3CCOCC3)cc2n2c(-c3cncc(OCC4CC4)c3)nnc12 [Compound B-26]
- Distance Total <2500 cm Effect ([3]; SC, Time -60, dose 2.5): 3061 cm
- Distance Total <2500 cm Effect ([3]; SC, Time -60, dose 10): 1653 cm
- PIC50 PDE10 ([1]; -log IC50 expressed in mol/L): 5.44
- Inh. of agitation < 10 Effect (cumulative agitation score) ([4]; Time 60, dose 10): 17

Structure (SMILES): CCCCOc1cncc(-c2nnc3c(C)nc4ccc(CNC)cc4n23)c1 [Compound B-28]
- PIC50 PDE10 [1]: <5

Structure (SMILES): CCCCOc1cncc(-c2nnc3c(C)nc4ccc(CNC(C)C)cc4n23)c1 [Compound B-23]
- PIC50 PDE10 [1]: <5

Structure (SMILES): CCCOc1ccc(Cl)c(-c2nnc3c(C)nc4ccc(CN(C)C)cc4n23)c1 [Compound B-15]
- PIC50 PDE10 [1]: 5.83

Structure (SMILES): CCCCOc1ccc(Cl)c(-c2nnc3c(C)nc4ccc(CNC)cc4n23)c1 [Compound B-25]
- Distance Total <2500 cm Effect ([3]; SC, Time -60, dose 10): 3921 cm
- PIC50 PDE10 [1]: 5.04

Structure (SMILES): CCCOc1cncc(-c2nnc3c(C)nc4ccc(CNCC)cc4n23)c1 [Compound B-24]
- PIC50 PDE10 [1]: <5

Structure (SMILES): CCCCOc1ccc(Cl)c(-c2nnc3c(C)nc4ccc(CNC(C)C)cc4n23)c1 [Compound B-20]
- PIC50 PDE10 [1]: 5.38

Structure (SMILES): COc1cncc(-c2nnc3c(C)nc4ccc(CN5CCOCC5)cc4n23)c1 [Compound B-12]
- PIC50 PDE10 ([1]; -log IC50 expressed in mol/L): 6.57
- Dose at max effect ([2]; SC): 10
- Max effect (lowest median cumulative agitation score) ([2]; SC, at the dose at max effect): 21
- LAD (lowest active dose) [2, 5]: >10
